Source: patent publication US20260109690A1, “HDAC6 INHIBITORS AND METHOD OF THEIR USE” (Baerenkraft Therapeutics, LLC., priority 2024, published 2026)

Experiments:
[1] = system: acetyl-α-tubulin in SH-SY5Y neuroblastoma cells; test: ICC dose response of acetylated alpha-tubulin in SH-SY5Y neuroblastoma cells; type: cell-based; conditions: Homo sapiens, 24 h, read-out: IC50 (acetyl-α-tubulin average fluorescence intensity)
Protocol: Cell Seeding: Seeded at 2,000 cells/well in 384-well plates 24-hours prior to compound treatment
Compound Treatment: 24-hour
HDAC6 inhibitor compounds tested (1 control and 6 experimental)
9-point dose-response curves for all compounds, starting at 30 μM with 3-fold serial dilutions
4 technical replicate wells per condition tested
Cells were seeded in 90 μL media. 10 μL of 10× compound solutions added to 90 μL media for 24-hours
Fixation: 4% PFA for 15 minutes (after removing all media and washing with DPBS+0.1% Tween-20)
Permeabilization: 0.1% Triton X-100 for 20 minutes
Primary antibody: acetyl-α-tubulin (Lys40/D20G3; Cell Signaling Technologies, #5335S) 1:1000 dilution in DPBS+5% goat serum+0.1% Tween-20, 1 hour at room temp on orbital shaker
Secondary antibody: Goat anti-Rabbit IgG (H+L) Highly Cross-Adsorbed Secondary Antibody, Alexa Fluor™ Plus 488, Catalog #A32731, 1:1000 dilution+Hoechst 33342, 1:10,000 dilution in DPBS+5% goat serum+0.1% Tween-20, 1 hour at room temp on orbital shaker
High-content imaging system: Image Xpress Micro Confocal from Molecular Devices […]
Integrated fluorescence intensity of acetyl-α-tubulin was calculated using an automated image-analysis algorithm in Meta Xpress software
Average intensity per cell was calculated by dividing the integrated fluorescence intensity by the number of nuclei. […]

[2] = biological target: T1, HDAC6 (Homo sapiens, UniProt Q9UBN7); test: Biochemical HDAC6 inhibitory activity assay; conditions: read-out: HDAC6 IC50
T1 sequence (Q9UBN7 1-1215): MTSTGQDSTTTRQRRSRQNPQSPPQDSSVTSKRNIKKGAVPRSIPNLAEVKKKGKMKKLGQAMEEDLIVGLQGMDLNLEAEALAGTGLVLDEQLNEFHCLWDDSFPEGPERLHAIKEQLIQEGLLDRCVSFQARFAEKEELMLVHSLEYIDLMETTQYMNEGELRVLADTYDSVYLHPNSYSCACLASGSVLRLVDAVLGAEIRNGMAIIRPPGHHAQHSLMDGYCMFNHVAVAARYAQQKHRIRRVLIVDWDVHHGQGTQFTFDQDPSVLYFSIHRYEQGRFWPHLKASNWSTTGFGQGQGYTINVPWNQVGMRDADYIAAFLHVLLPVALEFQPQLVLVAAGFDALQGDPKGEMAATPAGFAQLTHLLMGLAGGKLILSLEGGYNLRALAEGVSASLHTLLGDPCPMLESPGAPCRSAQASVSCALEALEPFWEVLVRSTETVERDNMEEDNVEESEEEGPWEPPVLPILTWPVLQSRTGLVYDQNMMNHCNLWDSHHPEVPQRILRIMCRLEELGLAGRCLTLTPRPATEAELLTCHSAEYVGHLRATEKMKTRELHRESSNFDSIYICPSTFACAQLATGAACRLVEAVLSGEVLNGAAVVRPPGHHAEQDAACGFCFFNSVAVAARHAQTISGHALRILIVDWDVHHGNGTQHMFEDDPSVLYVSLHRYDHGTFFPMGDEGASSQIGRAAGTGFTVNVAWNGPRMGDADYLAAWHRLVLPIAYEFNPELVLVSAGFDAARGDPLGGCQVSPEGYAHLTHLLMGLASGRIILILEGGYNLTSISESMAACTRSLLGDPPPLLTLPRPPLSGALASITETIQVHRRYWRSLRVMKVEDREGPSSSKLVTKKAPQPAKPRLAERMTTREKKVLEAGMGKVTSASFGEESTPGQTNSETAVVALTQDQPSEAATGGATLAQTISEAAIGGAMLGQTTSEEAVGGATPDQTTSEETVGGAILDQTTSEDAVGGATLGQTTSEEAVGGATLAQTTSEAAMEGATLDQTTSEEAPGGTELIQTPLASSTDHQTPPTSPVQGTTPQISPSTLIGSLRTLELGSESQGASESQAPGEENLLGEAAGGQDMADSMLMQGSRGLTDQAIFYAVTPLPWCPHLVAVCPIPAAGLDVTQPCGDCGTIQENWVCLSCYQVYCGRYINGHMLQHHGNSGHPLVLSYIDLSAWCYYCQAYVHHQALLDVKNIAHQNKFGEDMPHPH

[3] = biological target: HDAC1 (Homo sapiens, UniProt Q13547); test: HDAC selectivity panel: HDAC1; type: biochemical
[4] = biological target: T2, HDAC11 (Homo sapiens, UniProt Q96DB2); test: HDAC selectivity panel: HDAC11; type: biochemical
T2 sequence (Q96DB2 1-347): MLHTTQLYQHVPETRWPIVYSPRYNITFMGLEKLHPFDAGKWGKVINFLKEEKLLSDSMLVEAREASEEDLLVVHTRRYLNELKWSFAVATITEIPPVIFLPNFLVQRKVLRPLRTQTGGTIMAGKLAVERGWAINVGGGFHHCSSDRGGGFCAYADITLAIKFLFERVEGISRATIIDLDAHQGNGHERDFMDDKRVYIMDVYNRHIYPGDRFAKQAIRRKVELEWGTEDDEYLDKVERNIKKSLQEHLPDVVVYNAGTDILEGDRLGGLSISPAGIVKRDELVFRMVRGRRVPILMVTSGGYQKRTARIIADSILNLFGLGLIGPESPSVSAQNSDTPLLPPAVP

[5] = biological target: T3, HDAC8 (Homo sapiens, UniProt Q9BY41); test: HDAC selectivity panel: HDAC8; type: biochemical
T3 sequence (Q9BY41 1-377): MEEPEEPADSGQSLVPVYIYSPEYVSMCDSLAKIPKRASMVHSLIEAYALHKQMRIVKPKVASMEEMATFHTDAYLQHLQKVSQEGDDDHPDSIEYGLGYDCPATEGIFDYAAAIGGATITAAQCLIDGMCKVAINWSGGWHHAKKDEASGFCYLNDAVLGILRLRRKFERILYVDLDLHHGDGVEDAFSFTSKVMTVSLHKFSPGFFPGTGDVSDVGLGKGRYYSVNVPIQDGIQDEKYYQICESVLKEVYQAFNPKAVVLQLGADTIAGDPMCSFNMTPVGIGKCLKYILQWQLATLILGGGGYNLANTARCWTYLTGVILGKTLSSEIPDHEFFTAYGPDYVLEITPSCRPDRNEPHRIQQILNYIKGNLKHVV

[6] = biological target: T4, HDAC10 (Homo sapiens, UniProt Q969S8); test: HDAC selectivity panel: HDAC10; type: biochemical
T4 sequence (Q969S8 1-669): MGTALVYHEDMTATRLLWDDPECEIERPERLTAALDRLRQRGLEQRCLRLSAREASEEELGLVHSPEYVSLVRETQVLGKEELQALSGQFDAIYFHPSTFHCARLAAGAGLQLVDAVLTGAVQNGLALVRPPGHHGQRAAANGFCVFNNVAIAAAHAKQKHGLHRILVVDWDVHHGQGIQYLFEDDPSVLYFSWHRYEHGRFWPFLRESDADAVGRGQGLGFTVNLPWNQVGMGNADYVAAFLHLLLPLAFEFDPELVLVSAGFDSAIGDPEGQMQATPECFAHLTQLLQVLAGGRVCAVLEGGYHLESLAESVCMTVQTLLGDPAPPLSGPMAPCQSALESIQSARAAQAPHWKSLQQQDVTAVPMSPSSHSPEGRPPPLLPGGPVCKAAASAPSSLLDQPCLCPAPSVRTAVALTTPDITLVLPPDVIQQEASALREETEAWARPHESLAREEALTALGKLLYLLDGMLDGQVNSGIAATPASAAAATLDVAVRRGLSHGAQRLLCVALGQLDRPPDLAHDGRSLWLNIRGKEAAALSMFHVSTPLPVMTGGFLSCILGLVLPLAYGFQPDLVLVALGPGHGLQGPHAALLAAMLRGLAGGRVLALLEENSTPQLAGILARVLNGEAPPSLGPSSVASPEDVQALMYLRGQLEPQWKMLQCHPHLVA

[7] = biological target: HDAC3 (Homo sapiens, UniProt O15379); test: HDAC selectivity panel: HDAC3; type: biochemical
[8] = system: acetyl-α-tubulin in SH-SY5Y neuroblastoma cells; test: Western blot of acetylated alpha-tubulin in SH-SY5Y neuroblastoma cells; type: cell-based; conditions: 1 μM and 10 μM, 24 hours
Protocol: SH-SY5Y neuroblastoma cells were seeded at 1,000,000 cells/well of three 6-well plates and incubated for 24 hours. Cells were treated with 2 control and experimental HDAC6 inhibitors at 1 μM and 10 μM for 24-hours. Following treatment, cells were lysed, and proteins extracted for western blot. Proteins were separated by gel electrophoresis and transferred to nitrocellulose membranes. Membranes were blocked and probed with primary Abs overnight.
acetyl-α-tubulin (Lys40)(D20G3); Cell Signaling Technologies, #5335S
GAPDH; Millipore Sigma, #MAB374
Membranes were probed with secondary Abs for 1 hour and then the blots were imaged using the iBright 1500 (ThermoFisher)

Sequence of HDAC1 (Q13547 whole entry, species assumed): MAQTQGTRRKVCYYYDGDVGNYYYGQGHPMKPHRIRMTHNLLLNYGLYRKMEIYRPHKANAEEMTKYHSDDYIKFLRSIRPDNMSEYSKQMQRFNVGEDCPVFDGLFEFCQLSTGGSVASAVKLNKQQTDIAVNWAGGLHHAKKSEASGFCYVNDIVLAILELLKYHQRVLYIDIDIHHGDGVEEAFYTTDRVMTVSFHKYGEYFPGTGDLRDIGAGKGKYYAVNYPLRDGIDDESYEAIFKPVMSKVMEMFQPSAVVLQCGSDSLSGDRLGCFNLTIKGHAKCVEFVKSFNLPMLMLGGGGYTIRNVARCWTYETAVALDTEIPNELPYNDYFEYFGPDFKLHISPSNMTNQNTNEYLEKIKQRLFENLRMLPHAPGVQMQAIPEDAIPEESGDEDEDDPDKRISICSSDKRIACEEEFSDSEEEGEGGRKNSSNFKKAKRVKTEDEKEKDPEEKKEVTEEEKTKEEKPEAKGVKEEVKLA
Sequence of HDAC3 (O15379 whole entry, species assumed): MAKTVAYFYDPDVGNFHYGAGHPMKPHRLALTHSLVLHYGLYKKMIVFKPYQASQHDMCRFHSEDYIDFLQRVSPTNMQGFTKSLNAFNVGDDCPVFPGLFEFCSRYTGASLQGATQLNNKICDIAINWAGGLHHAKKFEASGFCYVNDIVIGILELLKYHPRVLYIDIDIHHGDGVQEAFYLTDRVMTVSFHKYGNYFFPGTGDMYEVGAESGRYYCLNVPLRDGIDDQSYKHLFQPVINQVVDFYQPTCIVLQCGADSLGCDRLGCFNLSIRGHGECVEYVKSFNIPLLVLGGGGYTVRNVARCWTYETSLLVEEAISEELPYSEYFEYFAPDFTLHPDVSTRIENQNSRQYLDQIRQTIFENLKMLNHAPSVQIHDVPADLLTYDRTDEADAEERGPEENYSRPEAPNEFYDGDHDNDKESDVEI
Sequence of HDAC3 (Q9Y618 395-489 partner limits assumed, species assumed): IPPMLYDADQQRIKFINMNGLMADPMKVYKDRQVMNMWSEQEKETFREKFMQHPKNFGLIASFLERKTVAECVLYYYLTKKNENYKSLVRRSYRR

IC50 [2] [nM] | SMILES | acetylation of α-tubulin (Western blot) [8] | also measured
 | O=C(CCCCCCNC(=O)c1cnc(N(c2ccccc2)c2ccccc2)nc1)NO [ACY-1215, ricolinostat, reference compound] |  | IC50 [1]: 1780 nM
< 1000 | CC1CN(C(=O)c2ccc(Nc3nccc(-c4ccc(C(=O)NO)cc4)n3)cc2F)CCO1 (stereo not drawn) [Compound I-5, 4-(2-((3-fluoro-4-(2-methylmorpholine-4-carbonyl)phenyl)amino)pyrimidin-4-yl)-N-hydroxybenzamide] |  | IC50 [3]: 1640 nM; IC50 [4]: 782 nM; IC50 [5]: 162 nM; IC50 [6]: 73.7 nM; IC50 [7]: 1360 nM
< 1000 | CN1CCN(Cc2ccc(Nc3nccc(-c4ccc(C(=O)NO)cc4)n3)cc2F)CC1 [Compound I-7, 4-(2-((3-fluoro-4-((4-methylpiperazin-1-yl)methyl)phenyl)amino)pyrimidin-4-yl)-N-hydroxybenzamide] | induce acetylation of α-tubulin in SH-SY5Y neuroblastoma cells in a dose-dependent manner | 
< 1000 | O=C(NO)c1ccc(-c2ccnc(Nc3ccc(CN4CCN(C5COC5)CC4)c(F)c3)n2)cc1 [Compound I-9, 4-(2-((3-fluoro-4-((4-(oxetan-3-yl)piperazin-1-yl)methyl)phenyl)amino)pyrimidin-4-yl)-N-hydroxybenzamide] | induce acetylation of α-tubulin in SH-SY5Y neuroblastoma cells in a dose-dependent manner | 
< 1000 | O=C(NO)c1ccc(-c2ccnc(N3CCC4(CC3)COC4)n2)cc1 [Compound I-25, 4-(2-(2-oxa-7-azaspiro[3.5]nonan-7-yl)pyrimidin-4-yl)-N-hydroxybenzamide] | induce acetylation of α-tubulin in SH-SY5Y neuroblastoma cells in a dose-dependent manner | 
< 1000 | O=C1NCC2(CCN(c3nccc(-c4ccc(C(=O)NO)cc4)n3)CC2)O1 [Compound I-26, N-hydroxy-4-(2-(2-oxo-1-oxa-3,8-diazaspiro[4.5]decan-8-yl)pyrimidin-4-yl)benzamide] | induce acetylation of α-tubulin in SH-SY5Y neuroblastoma cells in a dose-dependent manner | 
< 1000 | O=C(NO)c1ccc(-c2ccnc(N3CCC(F)(F)CC3)n2)cc1 [Compound I-27, 4-(2-(4,4-difluoropiperidin-1-yl)pyrimidin-4-yl)-N-hydroxybenzamide] | induce acetylation of α-tubulin in SH-SY5Y neuroblastoma cells in a dose-dependent manner | 
 | Cn1cc(CNCC2CCN(c3ncc(C(=O)NO)cn3)CC2)c2ccccc21 [Quisinostat, reference compound] |  | IC50 [6]: 8.37 nM
